Entries after “also recorded” stand apart in the source; their conditions may differ. Where two headings read alike, the source gives them in different places.
How the values were obtained:
[1] = Water solubility (statement); type: physicochemical
[2] = Biodistribution of butyrate after oral gavage (LC-MS/MS quantification in plasma and organs); type: in vivo, C57BL/6J mice; details: for butyrate level in the liver / butyrate level in the mesenteric LNs: 3 hr and 6 hr post oral administration; for butyrate level in the spleen: 3 hr post oral administration
Experimental: The specific-pathogen-free (SPF) female C57BL/6J mice were orally administered with 50.4 mg NaBut, 80 mg SerBut, 85.6 mg ThrBut (all containing equivalent 40 mg butyrate), or PBS. At 0.5 hr or 3 hr post administration, blood was collected by cheek bleeding. At 3 hr or 6 hr post administration, the mice were anesthetized under isoflurane and transcardially perfused with at least 30 ml phosphate-buffered saline (PBS) containing 1 mM EDTA. Organs including liver, mesenteric lymph nodes (mLNs), brain, spinal cord, and spleen were collected and frozen in dry ice immediately, and then transfer to −80° C. until further processing.
1:1 v/v acetonitrile (ACN) to water was used to extract butyrate from the plasma or organs. Plasma was mixed 1:1 with ACN/water solution, and then centrifuged to remove the denatured proteins. Organs were weighed and transferred to Lysing Matrix D tubes, and added with ACN/water 1:1 v/v solution followed by sample lysing using FastPrep-24 5G homogenizer (MP Biomedicals). The samples were then centrifuged, and the supernatant were collected for the measuring of butyrate.
Samples were prepared and derivatized as describe in the literature (5, 6). 3-nitrophenylhydrazine (NPH) stock solution was prepared at 0.02 M in water:acetonitrile 1:1 v/v. EDC stock solution (with 1% pyridine added) was prepared at 0.25 M in water:acetonitrile 1:1 v/v. 4-methylvaleric acid was added as internal standard. Samples were mixed with NPH stock and EDC stock at 1:1:1 ratio by volume. The mixture was heated by heating block at 60° C. for 30 min. Samples were then filtered through […] and transferred into HPLC vials and stored at 4° C. before analysis.
The Agilent 6460 Triple Quad MS-MS was used to detect the derivatized butyrate.
Both derivatized butyrate-NPH and 4-methylvaleric-NPH were detected in negative mode. Column: ThermoScientific C18 4.6×50 mm, […], at room temperature. Mobile phase A: water with 0.1% v/v formic acid. Mobile phase B: acetonitrile with 0.1% v/v formic acid. Injection volume: 5.0 μL. Flow rate: 0.5 mL/min. Gradient of solvent: 15% mobile phase B at 0.0 min; 100% mobile phase B at 3.5 min; 100% mobile phase B at 6.0 min; 15% mobile phase B at 6.5 min. The MS conditions were optimized on pure butyrate-NPH or 4-methylvaleric-NPH at 1 mM. The fragment voltage was 135 V and collision energy was set to 18 V. Multiple reaction monitoring (MRM) of 222→137 was assigned to butyrate, and MRM of 250→137 was assigned to 4-methylvaleric acid as internal standard. The ratio between MRM of butyrate and 4-methylvaleric acid was used to quantify the concentration of butyrate. The final butyrate content is each organ is normalized by the organ weight.

[3] = system: experimental autoimmune encephalomyelitis (EAE); type: in vivo, C57BL/6 mice; details: for Th17 cells (RORγt+% of CD4+ T cells) in the spinal cord: day 20, compared to the PBS group
From the text: C57BL/6 female mice (8 weeks old) were purchased from Charles River Laboratories and housed in the animal facility at the University of Chicago for 2 weeks before immunization. All experiments were approved by the Institutional Animal Care and Use Committee of the University of Chicago
Female C57BL/6 mice at the age of week 10 were subcutaneously immunized at the dorsal flanks with an emulsion of MOG35-55 in complete Freund's adjuvant (MOG35-55/CFA Emulsion, Hooke Laboratories) on day 0, followed by i.p. administration of pertussis toxin in PBS on both day 0 and day 1. The mice were treated with PBS or serine butyrate (0.6 mg/g per dose) twice daily from day 2 to day 19. Another group of mice were treated with PBS once (in the morning) and serine butyrate (0.6 mg/g) once (in the afternoon) daily. The development of EAE was monitored and clinical scores were measured daily from day 7 to day 20. The clinical scores were determined based on the Hooke Laboratories scoring criteria (found online at hookelabs.com/services/cro/eae/MouseEAEscoring.html). In brief, EAE clinical scores ranged from a score of 0, corresponding to no obvious changes in motor function compared to non-immunized mice, to a score of 4, corresponding to limp tail and minimal or no movement of hind and/or fore limbs. On day 20, mice from the twice daily PBS or serine butyrate gavage groups were sacrificed. Their blood was collected through cardiac puncture, and spleen, spinal cord, mesenteric lymph nodes (LNs), central nervous system(CNS)-draining LNs (dLNs, including cervical LNs and iliac LNs) were harvested for the immunostaining followed by the flow cytometry analysis. The major cytokines from the plasma and spinal cord after homogenization were analyzed by the LegendPlex (BioLegend).

[4] = oral, compared to mice treated with NaBut and ThrBut (PBS and sodium butyrate)
[5] = day 20, flow cytometry, twice daily vs PBS
[6] = day 20, flow cytometry, twice daily vs PBS, listed as Serine butyrate
[7] = day 20, flow cytometry, twice daily vs PBS, listed as serine butyrate
[8] = 0.5 hr and 3 hr after oral administration (both time points)

CCCC(=O)Oc1ccc(C[C@H](N)C(=O)O)cc1 [TyrBut, O-butyryl L-tyrosine]
water solubility [1]: not highly soluble

CCCC(=O)OC[C@H](N)C(=O)O [SerBut, O-butyryl L-serine]
water solubility [1]: water soluble
butyrate level in the plasma ([2]; 0.5 hr after oral administration, equivalent 40 mg butyrate): dramatically increased
butyrate level in the plasma ([2]; 3 hr after oral administration, equivalent 40 mg butyrate): dropped significantly
butyrate level in the liver [2]: high level of butyrate
butyrate level in the mesenteric LNs [2]: high level of butyrate; also recorded: higher accumulation
butyrate level in the spleen [2]: higher level of butyrate; also recorded: higher accumulation
butyrate level in brain [2, 4]: significantly enhanced; also recorded: significantly increased
butyrate level in spinal cord [2, 4]: significantly enhanced; also recorded: significantly increased
severity of EAE disease development (clinical score) ([3]; 0.6 mg/g per dose oral, twice daily day 2-19, vs PBS, listed as Serine butyrate): attenuates
dose regimen comparison in EAE: twice daily vs single daily dose ([3]; 0.6 mg/g twice daily vs once daily): performed better than a single dose
body weight loss ([3]; EAE mice treated orally): did not observe a significant body weight loss
MHCII expression (gMFI) on dendritic cells and macrophages in the mesenteric LNs ([3]; day 20, compared to PBS-treated mice): significantly lower
Th17 cells (RORγt+% of CD4+ T cells) in the spinal cord ([3]; listed as Serine butyrate): reduced
Th17 cells (RORγt+% of CD4+ T cells) in the spinal cord ([3]; listed as serine butyrate): less Th17 cells
CD80+% and CD86+% of CD11c hi dendritic cells in the spinal cord [3, 5]: significant reduction
cell surface MHCII expression in CD11c hi dendritic cells and CD11b+CD11c- monocytes, spinal cord [3, 5]: similarly marked reduction
MHCII positive dendritic cells and macrophages in the mesenteric LNs [3, 6]: suppresses
immune cell infiltration into the spinal cord (CD11b+, CD11b+CD11c-, F4/80+CD11b+ cells) [3, 6]: inhibits
MHCII positive dendritic cells and macrophages in the mesenteric LNs [3, 7]: significant reduction
immune cell infiltration into the spinal cord (CD11b+, CD11b+CD11c-, F4/80+CD11b+ cells) [3, 7]: significantly suppressed
IFNγ in the spinal cord ([3]; day 20, homogenate supernatant normalized by total protein): minimal IFNγ
Foxp3+CD8+ Tregs in the mesenteric LNs ([3]; day 20, twice daily vs PBS): significant induction
regulatory T cells in the spleen (Foxp3+ or Foxp3+CD25+ of CD4+ T cells) ([3]; day 20, twice daily vs PBS): significantly increased
EAE clinical score of the majority of mice ([3]; twice daily 0.6 mg/g, score scale 0-4): below 1.0

CCCC(=O)[O-].[Na+] [NaBut, sodium butyrate, reference compound]
butyrate level in the plasma [2, 8]: did not show high level of butyrate

CCCC(=O)OC(C)[C@H](N)C(=O)O (stereo in doubt) [ThrBut, O-butyryl L-threonine]
water solubility [1]: water soluble
butyrate level in the plasma [2, 8]: did not show high level of butyrate
butyrate level in the liver [2]: high level of butyrate
butyrate level in the mesenteric LNs [2]: high level of butyrate; also recorded: higher accumulation
butyrate level in the spleen [2]: higher level of butyrate; also recorded: higher accumulation
